Assay results published in publication PMC5623949, “Exploiting the 2-Amino-1,3,4-thiadiazole Scaffold To Inhibit Trypanosoma brucei Pteridine Reductase in Support of Early-Stage Drug Discovery” (ACS Omega, 2017).
Like-named read-outs stand apart in the source and are kept apart here.

Key:
CYP2C19 = CYP2C19 (Homo sapiens, UniProt P33261); experiment: in vitro; parameters: cytochrome P450 isoform inhibition liability assay
Protocol: (§1) Independent of the effect of any antiparasitic potential of compounds, they were evaluated using a panel of early-toxicity assays comprising cytotoxicity (A549, human lung adenocarcinoma epithelial cell line and WI-38, human lung fibroblasts), mitochondrial toxicity (786-O, human renal carcinoma cell line), hERG inhibition,[31] cytochrome P450 inhibition (CYP1A2, CYP2C9, CYP2C19, CYP2D6, and CYP3A4),[31] and Aurora B kinase inhibition. […] For the two compounds active against TbPTR1 (4m and 4o), IC50 against hERG, cytochrome P450, and mitochondrial toxicity were determined (reported in Supporting Information). We observed that the dose of compounds 4m, 4o, 4c, and 3k was 4 μM in the potentiation assays. […] In the case of hERG, CYP2D6, CYP2A9, CYP2C19, and mitochondrial toxicity, there is a selectivity index of around 3–4 fold, thus showing an acceptable profile.  Figure 10 Summary heat map of the in vitro assays to determine possible liability issues for all synthesized compounds. Assays were performed to assess inhibition of hERG and five CYP isoforms (1A2, 2C9, 2C19, 2D6, and 3A4), growth inhibition of A549 and W1-38 cell lines, and mitochondrial toxicity at 10 μM. The hDHFR inhibition was determined at 100 μM. The data, expressed as percentage values, were organized by adopting a color code for rapid and intuitive visualization. The ideal compound should have all tiles blue, indicating a safe toxicological profile for progressing into the development pipeline. The cells are colored from blue (100% of cell growth at the tested concentration) to red (0% of cell growth at the tested concentration) for A549 and W1-38 and from blue (0% of inhibitory activity at the tested concentration) to red (100% of inhibitory activity at the tested concentration) for CYP isoforms, hERG, hDHFR, and mitochondrial toxicity.

CYP1A2 = target: T1, CYP1A2 (Homo sapiens, UniProt P05177); experiment: in vitro; parameters: cytochrome P450 isoform inhibition liability assay
T1 sequence (P05177 1-516): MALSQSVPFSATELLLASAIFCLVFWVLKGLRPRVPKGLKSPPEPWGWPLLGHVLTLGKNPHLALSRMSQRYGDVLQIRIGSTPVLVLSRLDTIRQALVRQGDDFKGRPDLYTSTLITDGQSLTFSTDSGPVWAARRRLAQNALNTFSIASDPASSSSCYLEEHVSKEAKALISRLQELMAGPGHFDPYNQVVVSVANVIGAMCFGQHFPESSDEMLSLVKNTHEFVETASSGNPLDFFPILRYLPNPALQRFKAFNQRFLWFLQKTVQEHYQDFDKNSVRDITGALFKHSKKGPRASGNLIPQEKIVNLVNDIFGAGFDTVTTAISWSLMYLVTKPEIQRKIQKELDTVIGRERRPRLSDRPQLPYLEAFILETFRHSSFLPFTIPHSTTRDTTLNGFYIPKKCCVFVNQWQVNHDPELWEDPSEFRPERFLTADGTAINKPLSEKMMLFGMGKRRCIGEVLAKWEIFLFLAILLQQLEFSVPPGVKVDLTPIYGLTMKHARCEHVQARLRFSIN
Protocol: as §1

CYP3A4 = CYP3A4 (Homo sapiens, UniProt P08684); experiment: in vitro; parameters: cytochrome P450 isoform inhibition liability assay
Chain of CYP3A4 (P08684 whole entry, canonical isoform): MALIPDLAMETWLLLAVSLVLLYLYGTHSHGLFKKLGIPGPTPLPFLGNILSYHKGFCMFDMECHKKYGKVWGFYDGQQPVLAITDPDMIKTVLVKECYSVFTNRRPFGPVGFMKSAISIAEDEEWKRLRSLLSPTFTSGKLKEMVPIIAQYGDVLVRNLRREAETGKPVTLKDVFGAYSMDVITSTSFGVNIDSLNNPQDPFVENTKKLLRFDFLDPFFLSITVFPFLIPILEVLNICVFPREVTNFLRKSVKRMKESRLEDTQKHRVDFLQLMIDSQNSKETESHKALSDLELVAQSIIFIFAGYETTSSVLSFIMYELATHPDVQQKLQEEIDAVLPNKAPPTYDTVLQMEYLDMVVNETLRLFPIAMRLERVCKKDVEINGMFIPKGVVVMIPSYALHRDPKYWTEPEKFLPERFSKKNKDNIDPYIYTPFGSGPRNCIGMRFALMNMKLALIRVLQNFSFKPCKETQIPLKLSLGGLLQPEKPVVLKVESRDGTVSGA
Protocol: as §1

CYP2D6 = CYP2D6 (Homo sapiens, UniProt P10635); experiment: in vitro; parameters: cytochrome P450 isoform inhibition liability assay
Chain of CYP2D6 (P10635 whole entry, canonical isoform): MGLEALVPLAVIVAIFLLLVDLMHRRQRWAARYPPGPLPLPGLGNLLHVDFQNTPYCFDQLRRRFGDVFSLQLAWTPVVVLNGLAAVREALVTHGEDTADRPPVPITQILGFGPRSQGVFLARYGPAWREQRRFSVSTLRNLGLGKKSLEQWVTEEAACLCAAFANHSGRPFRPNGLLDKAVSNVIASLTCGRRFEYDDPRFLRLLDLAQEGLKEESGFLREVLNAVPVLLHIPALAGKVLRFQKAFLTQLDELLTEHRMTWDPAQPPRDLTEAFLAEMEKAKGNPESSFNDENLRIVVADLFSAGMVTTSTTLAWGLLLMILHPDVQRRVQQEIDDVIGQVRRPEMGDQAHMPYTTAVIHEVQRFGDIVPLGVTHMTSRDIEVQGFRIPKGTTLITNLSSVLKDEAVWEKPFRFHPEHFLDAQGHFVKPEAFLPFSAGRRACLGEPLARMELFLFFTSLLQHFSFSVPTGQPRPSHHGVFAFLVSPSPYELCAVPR
Protocol: as §1

CYP2C9 = CYP2C9 (Homo sapiens, UniProt P11712); experiment: in vitro; parameters: cytochrome P450 isoform inhibition liability assay
Chain of CYP2C9 (P11712 whole entry, canonical isoform): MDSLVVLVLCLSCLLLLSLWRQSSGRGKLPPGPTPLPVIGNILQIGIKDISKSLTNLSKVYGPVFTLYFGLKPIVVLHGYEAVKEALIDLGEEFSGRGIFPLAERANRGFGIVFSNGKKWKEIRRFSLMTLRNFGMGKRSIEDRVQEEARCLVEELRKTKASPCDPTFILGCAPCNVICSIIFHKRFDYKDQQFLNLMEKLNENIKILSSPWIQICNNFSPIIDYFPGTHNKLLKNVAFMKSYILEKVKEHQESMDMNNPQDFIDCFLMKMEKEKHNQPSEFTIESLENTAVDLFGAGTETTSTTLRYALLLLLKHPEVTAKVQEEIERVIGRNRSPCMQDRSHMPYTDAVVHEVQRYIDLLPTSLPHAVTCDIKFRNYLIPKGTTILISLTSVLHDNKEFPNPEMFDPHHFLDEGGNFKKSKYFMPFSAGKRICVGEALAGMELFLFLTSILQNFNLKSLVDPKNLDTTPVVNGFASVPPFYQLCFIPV
Protocol: as §1

hDHFR = target: T2, hDHFR (Homo sapiens, UniProt P00374); experiment: biochemical; parameters: human DHFR enzyme inhibition
T2 construct: gene DHFR
T2 sequence (P00374 1-187): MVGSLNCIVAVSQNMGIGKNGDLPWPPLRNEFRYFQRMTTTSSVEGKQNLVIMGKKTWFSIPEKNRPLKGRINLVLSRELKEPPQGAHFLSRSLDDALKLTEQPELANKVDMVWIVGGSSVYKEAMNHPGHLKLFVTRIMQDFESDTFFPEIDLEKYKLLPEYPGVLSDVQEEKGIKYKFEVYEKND
Protocol: Figure 10 Summary heat map of the in vitro assays to determine possible liability issues for all synthesized compounds. Assays were performed to assess inhibition of hERG and five CYP isoforms (1A2, 2C9, 2C19, 2D6, and 3A4), growth inhibition of A549 and W1-38 cell lines, and mitochondrial toxicity at 10 μM. The hDHFR inhibition was determined at 100 μM. The data, expressed as percentage values, were organized by adopting a color code for rapid and intuitive visualization. The ideal compound should have all tiles blue, indicating a safe toxicological profile for progressing into the development pipeline. The cells are colored from blue (100% of cell growth at the tested concentration) to red (0% of cell growth at the tested concentration) for A549 and W1-38 and from blue (0% of inhibitory activity at the tested concentration) to red (100% of inhibitory activity at the tested concentration) for CYP isoforms, hERG, hDHFR, and mitochondrial toxicity.

in vitro [1] = experiment: in vitro; parameters: cytotoxicity, per cent cell growth of A549 cells; settings: human, a549 cells; read-out: % cell growth A549 at 10uM
Protocol: as §1

in vitro [2] = experiment: in vitro; parameters: cytotoxicity, per cent cell growth of WI-38 fibroblasts; settings: human, wi-38 cells; read-out: % cell growth W1-38 at 10uM
Protocol: as §1

hERG = target: T3, hERG (Homo sapiens, UniProt Q12809); parameters: hERG inhibition liability assay
T3 construct: gene KCNH2
T3 sequence (Q12809 whole entry): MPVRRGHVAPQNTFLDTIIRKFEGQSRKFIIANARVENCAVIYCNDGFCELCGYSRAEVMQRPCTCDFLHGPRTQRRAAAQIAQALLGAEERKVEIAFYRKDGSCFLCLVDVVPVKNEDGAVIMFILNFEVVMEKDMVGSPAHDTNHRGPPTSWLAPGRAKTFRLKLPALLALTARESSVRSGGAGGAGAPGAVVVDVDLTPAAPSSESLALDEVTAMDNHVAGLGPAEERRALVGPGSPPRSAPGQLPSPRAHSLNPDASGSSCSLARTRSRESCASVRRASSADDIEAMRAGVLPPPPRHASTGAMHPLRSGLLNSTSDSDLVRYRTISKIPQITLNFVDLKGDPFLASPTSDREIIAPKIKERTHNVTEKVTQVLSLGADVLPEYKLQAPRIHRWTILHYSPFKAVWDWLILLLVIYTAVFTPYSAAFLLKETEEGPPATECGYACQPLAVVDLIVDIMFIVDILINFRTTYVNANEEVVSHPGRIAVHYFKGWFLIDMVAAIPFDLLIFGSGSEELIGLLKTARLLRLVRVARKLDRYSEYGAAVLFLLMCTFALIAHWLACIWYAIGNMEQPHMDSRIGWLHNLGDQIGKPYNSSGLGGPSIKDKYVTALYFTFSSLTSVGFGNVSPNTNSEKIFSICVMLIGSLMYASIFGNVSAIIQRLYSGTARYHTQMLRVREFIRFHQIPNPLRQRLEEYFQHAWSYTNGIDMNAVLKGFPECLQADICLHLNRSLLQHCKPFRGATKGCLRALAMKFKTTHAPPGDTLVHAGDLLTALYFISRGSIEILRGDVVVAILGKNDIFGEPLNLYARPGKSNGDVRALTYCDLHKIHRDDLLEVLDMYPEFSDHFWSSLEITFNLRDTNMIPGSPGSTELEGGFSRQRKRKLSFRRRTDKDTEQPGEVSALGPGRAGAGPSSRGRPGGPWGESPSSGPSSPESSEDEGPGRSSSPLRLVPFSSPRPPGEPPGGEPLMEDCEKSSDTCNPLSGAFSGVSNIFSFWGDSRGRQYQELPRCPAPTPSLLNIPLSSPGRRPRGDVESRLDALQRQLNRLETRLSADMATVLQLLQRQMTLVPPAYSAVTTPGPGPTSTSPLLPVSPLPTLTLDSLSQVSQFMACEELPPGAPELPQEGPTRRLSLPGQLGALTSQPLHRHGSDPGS
Protocol: as §1

786-O = experiment: cells; parameters: mitochondrial toxicity in 786-O renal carcinoma cells; settings: Homo sapiens, 786-0; mitochondrial toxicity
Protocol: as §1

TbPTR1 = target: T4, TbPTR1 (Trypanosoma brucei brucei, UniProt O76290); experiment: biochemical; settings: for inhibition at 50 µM: read-out: % Inhibition TbPTR1 at 50 μM; for IC50: dose-response 0.001-100 μM
T4 construct: made in house
T4 sequence (O76290 1-268): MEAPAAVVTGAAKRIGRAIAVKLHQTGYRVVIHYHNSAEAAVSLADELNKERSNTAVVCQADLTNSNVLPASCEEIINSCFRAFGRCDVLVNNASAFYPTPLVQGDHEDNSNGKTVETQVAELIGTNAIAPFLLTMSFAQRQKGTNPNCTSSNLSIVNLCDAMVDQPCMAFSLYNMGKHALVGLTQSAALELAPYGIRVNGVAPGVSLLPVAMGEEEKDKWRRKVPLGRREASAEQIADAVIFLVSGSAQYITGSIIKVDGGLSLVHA

[3] = system: T. b. brucei Lister 427 bloodstream forms; experiment: In vitro activity against T. brucei (HTS SYBR Green I growth inhibition assay); type: cell-based, Trypanosoma brucei brucei; settings: for EC50 / inhibition at 50 µM: Trypanosoma brucei; for EC50: read-out: EC50 T. brucei; for inhibition at 50 µM: read-out: % Inhibition T. brucei at 50 μM
[4] = 50 μM, standard deviation within ±10% of the value
[5] = standard deviation within ±10% of the value

Chain of CYP2C19 (P33261 whole entry, canonical isoform): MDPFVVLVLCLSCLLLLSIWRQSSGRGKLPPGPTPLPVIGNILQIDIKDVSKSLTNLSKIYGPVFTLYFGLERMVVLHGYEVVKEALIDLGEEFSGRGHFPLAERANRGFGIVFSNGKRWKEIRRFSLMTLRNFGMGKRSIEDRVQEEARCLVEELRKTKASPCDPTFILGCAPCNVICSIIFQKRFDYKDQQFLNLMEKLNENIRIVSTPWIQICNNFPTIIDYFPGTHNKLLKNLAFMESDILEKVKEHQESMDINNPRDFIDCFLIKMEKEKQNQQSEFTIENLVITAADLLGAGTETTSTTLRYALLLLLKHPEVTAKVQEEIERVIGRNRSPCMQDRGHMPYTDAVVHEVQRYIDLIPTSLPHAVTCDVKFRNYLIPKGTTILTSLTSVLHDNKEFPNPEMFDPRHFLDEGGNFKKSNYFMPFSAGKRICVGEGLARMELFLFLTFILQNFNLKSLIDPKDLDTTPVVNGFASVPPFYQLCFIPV

Compound | inhibition at 10 µM (CYP2C19) [%] | inhibition at 10 µM (CYP1A2) [%] | inhibition at 10 µM (CYP3A4) [%] | inhibition at 10 µM (CYP2D6) [%] | inhibition at 10 µM (CYP2C9) [%] | inhibition at 100 µM (hDHFR) [%] | viability at 10 µM (in vitro [1]) [%] | viability at 10 µM (in vitro [2]) [%] | inhibition at 10 µM (hERG) [%] | inhibition at 10 µM (786-O) [%] | inhibition at 50 µM (TbPTR1; 50 μM compound) [%] | IC50 (TbPTR1) [µM] | % Inhibition T. brucei at 50 μM [3, 4] [%] | EC50 [3, 5] [µM] | inhibition at 50 µM [3, 4] [%] | inhibition at 10 µM (hDHFR) [%] | inhibition at 50 µM (TbPTR1) [%] | inhibition at 50 µM [3] [%]
COc1cccc(CNc2nnc(N)s2)c1 [4i] | 45.9 ± 0.8 | 15.9 ± 1.1 | 87.7 ± 0.4 | 105.2 ± 0.1 | 33.5 ± 1.7 | 28 | 107 ± 5.8 | 129 ± 14.1 | 108 ± 9.6 | -15.3 ± 24.3 | 31 ± 1.3 | 56 | 95.6 | 16 | – | – | – | –
COc1ccccc1-c1nnc(N)s1 [1h] | -20.9 ± 16.1 | 21.5 ± 4.6 | -9.4 ± 8 | -31.5 ± 9.5 | -32.3 ± 3.6 | 14 | 126 ± 17.3 | 129 ± 10.3 | 5.2 ± 6.6 | -7.8 ± 2.6 | 24.1 ± 1 | – | – | – | < 0 | – | – | –
Nc1nnc(-c2cccc(-c3ccc4c(c3)OCO4)c2)s1 [2g] | 34.3 ± 3.7 | 97.8 ± 1 | 28.2 ± 5 | 27 ± 2.36 | 28.7 ± 2.2 | – | 116 ± 8.3 | 130 ± 14.1 | 27.9 ± 5.2 | -2.6 ± 13.7 | 4 ± 0.4 | – | – | – | 10.4 | 12 | – | –
Nc1nnc(NCc2ccc(Cl)c(Cl)c2)s1 [4e] | 36.8 ± 0.9 | 29.1 ± 3.4 | 27.4 ± 6.8 | 99 ± 0.6 | 17.6 ± 0.9 | 24 | 106 ± 2.7 | 68.5 ± 18.8 | 75.6 ± 4.4 | 3.6 ± 8.5 | 48.5 ± 2.1 | 31 | – | – | < 0 | – | – | –
Nc1nnc(-c2ccc(Cl)c(Cl)c2)s1 [1l] | 64.9 ± 1.7 | 80.6 ± 1.6 | 35.7 ± 7.9 | 52.7 ± 2.1 | 46.7 ± 1.5 | – | 107 ± 1.2 | 77.8 ± 22.1 | 91.7 ± 8.4 | 7.6 ± 8.3 | 15.6 ± 0.7 | – | – | – | 30 | 18 | – | –
CN(C)CCc1nnc(N)s1 [3i] | -30.1 ± 15.1 | -3.2 ± 4.2 | -14.3 ± 3.1 | -35.4 ± 5 | -13.5 ± 3.9 | 12 | 143 ± 11.8 | 114 ± 22.2 | 0.7 ± 2.8 | -12.4 ± 3.4 | – | – | – | – | – | – | 5.6 ± 0.6 | < 0
COc1cccc(OC)c1-c1nnc(N)s1 [1g] | -30.6 ± 12.9 | 8.9 ± 0.3 | 13 ± 6.4 | -30.5 ± 5.6 | -5.6 ± 1.3 | 12 | 149.9 ± 0.3 | 80.3 ± 6.8 | 4.3 ± 2 | -3.9 ± 2 | 14.1 ± 1.2 | – | – | – | 4.2 | – | – | –
Nc1nnc(/C=C/c2ccccc2)s1 [3h] | 7.2 ± 9.8 | 25.2 ± 1.1 | 45.9 ± 5.5 | -22.1 ± 8 | 4.1 ± 5.9 | – | 138 ± 5.6 | 111 ± 42 | 58.7 ± 4.9 | -1.3 ± 6.6 | 34.3 ± 1.2 | – | – | 58 | 82.7 | 15 | – | –
Nc1nnc(Cc2ccccc2)s1 [3b] | -42.6 ± 5.5 | -10.2 ± 1.6 | -23.7 ± 5.9 | -41.7 ± 3.9 | -20.4 ± 1.8 | 6 | 125 ± 4.8 | 120 ± 1.7 | 11.1 ± 5.2 | -7.4 ± 11.1 | 8.1 ± 0.2 | – | – | – | < 0 | – | – | –
Nc1nnc(-c2ccc(O)c(O)c2)s1 [1d, 3′,4′-dihydroxy-phenyl-1,3,4-thiadiazole] | -32.3 ± 7.8 | -16.8 ± 6.9 | -8.1 ± 3.2 | -28.4 ± 10.1 | -19.5 ± 5.6 | 62 | 145.9 ± 0.7 | 99.9 ± 17.5 | 19.2 ± 6.4 | -0.1 ± 6.2 | 16.7 ± 1 | – | – | 18.3 | 78.6 | – | – | –
Nc1cccc(-c2ccc(-c3nnc(N)s3)cc2)c1 [2b] | -3.9 ± 13.3 | 44.6 ± 1.5 | 32 ± 3.7 | -16.1 ± 6.6 | 1.9 ± 1 | – | 137 ± 11.1 | 73.4 ± 2.5 | 9.1 ± 4.4 | -1 ± 2.2 | 16.2 ± 0.5 | – | – | – | 33.4 | 17 | – | –
COc1ccc(-c2ccc(-c3nnc(N)s3)nc2)cc1 [1t] | 17 ± 5.7 | 76.4 ± 1.2 | 8.5 ± 3.3 | 8.9 ± 2.4 | 19.7 ± 8.9 | – | 60.7 ± 5.9 | 107 ± 10.4 | 59.5 ± 42.9 | 6.7 ± 17.3 | 8.3 ± 1.8 | – | – | – | 28.9 | 8 | – | –
